Earlier results on two substances are cited in publication PMC9292820 (British Journal of Clinical Pharmacology, 2021).

For data set [1], the system named is healthy male participants.
The subject of a further data set is angiotensin II (Ang‐II). The settings on record: rats, bolus injection.

For buprenorphine, the “decrease in pupil/iris ratio (miosis)” value in data set [1] is listed as “up to 50%”.
As for “opiorphin (QRFSR; Opiorphin; UniProt Q99935 22-26, looked up)”, the “levels of angiotensin II (Ang‐II)” value with angiotensin II (Ang‐II) is listed as “increased levels”.
